Square brackets hold non-standard residues; d marks the D form. Ends that are not written are not given here. pGlu = O=C1CC[C@@H](C(=O)O)N1
Test system: panelists
Assay: Degree of Difference (DOD) of test rice from control rice
Assay type: in vivo, human
Design: Degree of Difference in rice: scale not given here
Conditions: for Degree of Difference in rice: difference from Control; for Degree of Difference in rice / DOD from Control: rice; for DOD from Control: scale 0.0 to 10.0
Text: The present example describes the evaluation of the descriptive profile of pGlu-Cys (identified as “FE-35”), pGlu-Cys-Gly (identified as “FE-36”), pGlu-Cys-Cys (identified as “FE-37”), pGlu-Cys-Val (identified as “FE-38”) and pGlu-Val-Cys (identified as “UE-30”) peptides of the present application. An objective of the study was to understand the efficacy of flavor enhancer compounds FE-35, FE-36, FE-37, FE-38 and UE-30 in increasing concentrations both in solution and in rice, and to determine a Degree of Difference (DOD) score between a control rice sample (which includes NaCl, and no flavor composition peptide) and the test rice samples (with added flavor composition peptides at increasing concentrations).

Substance | Whether consumers notice a difference between the Control and test rice (DOD) (1 ppb) | Whether consumers notice a difference between the Control and test rice (DOD) (10 and 100 ppb) | Degree of Difference in rice (1.0 ppb) | Degree of Difference in rice (10.0 ppb) | Degree of Difference in rice (100.0 ppb) | DOD from Control (1.0 ppb (5 ppm)) | DOD from Control (10.0 ppb (50 ppm)) | DOD from Control (100 ppb (50 ppm)) | Whether consumers notice a difference between the Control and test rice (DOD) (1 and 10 ppb) | Whether consumers notice a difference between the Control and test rice (DOD) (10 ppb) | Whether consumers notice a difference between the Control and test rice (DOD) (100 ppb) | Whether consumers notice a difference between the Control and test rice (DOD) (all concentrations) | Whether consumers notice a difference between the Control and test rice (DOD) (1 and 100 ppb)
[pGlu]-Cys [FE-35] | Consumers will likely not notice the difference | Consumers will likely notice a difference | 3.8 | 5.0 | 5.0 | 3.8 | 5.0 | 5.0 | – | – | – | – | –
[pGlu]-Cys-Cys (cysteine pairing not given here) [FE-37] | – | – | 4.0 | 4.5 | 5.0 | 4.0 | 4.5 | 5.0 | Consumers will may or may not notice a difference | Consumers may or may not notice a difference | Consumers will likely notice a difference | – | –
[pGlu]-Cys-Gly [FE-36] | – | – | 5.0 | 5.0 | 5.5 | 5.0 | 5.0 | 5.5 | – | – | – | Consumers will likely notice a difference | –
[pGlu]-Cys-Val [FE-38] | – | – | 4.5 | 5.0 | 4.5 | 4.5 | 5.0 | 4.5 | – | Consumers will likely notice a difference | – | – | Consumers may or may not notice a difference
[pGlu]-Val-Cys [UE-30] | Consumers may or may not notice a difference | Consumers will likely notice a difference | 4.5 | 5.0 | 5.0 | 4.5 | 5.0 | 5.0 | – | – | – | – | –
